The text below walks through data of patent US4766116A, “Diaryl butyric acid derivative and pharmaceutical use thereof” (Suntory Limited, priority 1984, dated 1988).

One assay relates to Male mice. As to the kind of experiment: Hemicholinium No. 3 (HC-3) Induced Anoxia Activity (survival time). Type of assay: in vivo. The conditions noted are these: Mus musculus; ip, 15 minutes before 5 mg/kg hemicholinium No. 3 into tail vein; read-out: HC-3 Induced Anoxia EDmin (Minimum effective dose). How it is done: Male mice having a body weight of 22 to 30 g were used (i.e., 7 to 10 mice in one group). The sample compound prepared in the Synthesis Example 1 or 7 was intraperitoneally injected into the mice and, 15 minutes later, 5 mg/kg of hemicholinium No. 3 was injected into the tail vein of the mice. The time from the injection of hemicholinium No. 3 to the termination of breathing by the mice was determined to be the survival time. The results were compared with that of a control group to which only a physiological saline was injected.

Assay [1] concerns Male ddY mice. The assay can be described thus: Scopolamine Amnesia Activity (step-through passive avoidance learning). The format is in vivo. The conditions noted are these: Mus musculus; ip immediately after first session; scopolamine 0.5 mg/kg hypodermically; retention test 24 hours later; read-out: Scopolamine Amnesia EDmin (Minimum effective dose). An excerpt: Ten male ddY mice having a body weight of 22 to 30 g were used as one group. A slit was located between a light room and a dark room. In the dark room, an arrangement was made whereby an electric shock was given to the feet by an electric current. Thus, the behavior of the mice in relation to step-through to the dark room was studied. The mice were amnesically treated with an administration of scopolamine with or without the injection of the sample compound 1 or 7 and the time taken to avoid step-through by the mice to the dark room was determined by the so-called step-through passive avoidance learning method. The electric current used was 0.6 mA. The scopolamine was hypodermically injected in an amount of 0.5 mg/kg at 20 minutes prior to the first session and the sample compound was intraperitoneally injected immediately after the first session. The retention test (i.e., the second session) was carried out 24 hours later.

Assay [2] relates to Male ddY mice. As to the kind of experiment: Global Ischemia Activity (gasping time after decapitation). The format is in vivo. The note with it: Mus musculus; ip, 30 minutes before decapitation; vs saline control; read-out: Global Ischemia EDmin (Minimum effective dose). Here is the method:
Male ddY mice having a body weight of 22 to 30 g were used (i.e., 6 mice in one group). The sample compound prepared in the Synthesis Example 1 or 7 was intraperitoneally injected into the mice and the mice were decapitated 30 minutes after the injection. After decapitation, the gasping times were determined. The results were compared with a control group to which only the saline was injected.

The test system of assay [3] is Male ddY mice. The assay can be described thus: Normobaric Hypoxia Activity (survival time in 96% N2 and 4% O2). Type of assay: in vivo. The note with it: Mus musculus, ip, 30 minutes before, read-out: Normobaric Hypoxia EDmin (Minimum effective dose). Here is the method:
Male ddY mice having a body weight of 22 to 30 g were used (i.e., 7 to 10 mice in one group). The sample compound prepared in the Synthesis Example 1 or 7 was intraperitoneally injected into the mice and, 30 minutes later, the mice were placed in a desiccator having a volume of about 1 liter and filled with a gas mixture of 96% N2 and 4% O2. The survival time up to the termination of breathing by the mice was determined. During the test, the N2 --O2 gas mixture was continuously supplied at a rate of 3 l/min. When the survival time was more than 15 minutes, the survival time was assumed to be 15 minutes. The results were compared with a control group, to which only a physiological saline was injected.

Assay [4] deals with Male ddY mice. As to the kind of experiment: Hypobaric Hypoxia Activity (survival time at 180 mmHg). The format is in vivo. The note with it: Mus musculus; ip, 30 minutes before evacuation to 180 mmHg; vs physiological saline; read-out: Hypobaric Hypoxia EDmin (Minimum effective dose). How it is done:
Male ddY mice having a body weight of 22 to 30 g were used (i.e., 7 to 10 mice in one group). The mice were […] sample compound prepared in the Synthesis Example 1 or 7 was intraperitoneally injected into the mice. The desiccator was evacuated 30 minutes after the injection and the time from the start of the evacuation to the termination of breathing by the mice was determined to be the survival time. If a mouse was still alive 15 minutes after exposure to the hypoxia, the survival time was assumed to be 15 minutes.

In another assay the test system is rat brain homogenate. As to the kind of experiment: Antilipid Peroxidation Activity (A), rat brain homogenate, TBA reaction. Type of assay: biochemical, Male Wister rats. The conditions noted are these: at 10^-4 M, 37° C., 30 minutes. Here is the method:
(A) Male Wister rats having a body weight of 350 to 380 g were used. A rat was decapitated and the whole brain other than the cerebellum was homogenized in 10 times volume of ice cooled 50 mM buffered saline (PBS) having a pH of 7.4. The homogenized mixture was then centrifugally separated and the resultant supernatant frozen at a temperature of -30° C. The frozen specimen was melted in flowing water and was then diluted with 3 times volume PBS to prepare the diluted homogenate.
A 10 μl of a solution of the sample compound prepared in the Synthesis Example 1 or 7 was added to 1 ml of the diluted homogenate obtained above and the mixture was incubated at a temperature of 37° C. for 30 minutes. […]
As is the case of the test compound solution, 10 μl of the standard solution of tetramethoxypropane (TMP) was prepared and was added to the reaction mixture in amounts of 0 to 10 nmole/tube. […] Thereafter, the resultant layers were stabilized for 10 minutes at 2,000 rpm and the absorbance of the organic layer at 532 nm or the fluorescence intensity of the organic layer at 553 nm (excited at 515 nm) were determined. The lipid peroxide content was determined and represented a nmole number of malon dialdehyde (MDA) per mg of protein. The protein was determined by a Lawry method (i.e., Lawry et al., J. Biol. Chem., 193, 265 (1951)).

For assay [5], the system named is lipid peroxides in the blood serum. As to the kind of experiment: Antilipid Peroxidation Activity (B), lipid peroxides in blood serum of alloxan-injected mice. The format is in vivo, Male ddY mice. The note with it: at a dose of 10 mg/kg, ip, 24 hours after alloxan 85 mg/kg. Here is the method:
(B) Male ddY mice having a body weight of 24 to 27 g were used (i.e., 5 to 9 mice in one group). After 16 to 17 hours nestia, 85 mg/kg of alloxan was rapidly injected into the tail vein of the mice. After injecting the alloxan, the mice were subjected to free feeding and free water intaking and, 24 hours later, the sample compound was intraperitoneally injected into the mice. After an additional 24 hours, anesthesia was applied to the mice with ether and the blood of alvine aorta and cava was sampled. The amounts of the lipid peroxides in the blood serum were quantitatively measured according to a Yagi's method (i.e., K. Yagi, Biochem. Med., 15, 212, 1976).
The results were compared with that of a control group to which only a physiological saline was injected.

With `COc1ccc(O)c(C(CCC(=O)N2CCN(C)CC2)c2ccccc2)c1` (stereo not shown) [Example 1, 4-(2-hyddroxy-5-methoxy)phenyl-4-phenyl-1-(4-methyl)piperazinyl-1-oxobutane], the minimal effective dose in the assay on Male mice was found to be 50 mg/kg; with Male ddY mice [1], 50 mg/kg; in the assay on Male ddY mice [2], 25 mg/kg; in the assay with Male ddY mice [3], 50 mg/kg; with Male ddY mice [4], 50 mg/kg. The “Antilipid Peroxidation, % inhibition of the rat brain homogenate” value in the assay with rat brain homogenate was 95.4%. In addition, the “inhibition of the formation of the lipid peroxides” value in assay [5] is reported as “caused inhibition”.
